Measured values from US20060069040A1, “GHB compositions” (priority 2004, published 2006).
Like-named read-outs stand apart in the source and are kept apart here.

Tests used:
[1] = man, GHB given orally; cited from earlier work
[2] = system: CD-1 male mice; assay type: in vivo
Experimental: (§1) CD-1 male mice (30-40 g) were housed 3 to 4 per cage in the animal care facility on a 12 hour light dark cycle with free access to water and food for at least 1 week before testing.
The Rota-rod is a validated and sensitive tool that has been developed to document neurological deficits after pharmacological treatments. In this test, mice are placed on an accelerating Rota-rod whose revolutions per minute increase from 4 to 40 cycles per minute in about 4 minutes. The time it takes for the mice to fall off the rod is the end point of the test. Initially, the mice were given 3 practice runs on the rod to familiarize themselves with the test procedure. The time that mice remained on the rod was usually between five and ten minutes. A baseline measure was then made, the test drug given and the test procedure run every 20 minutes starting at time 0, immediately after drug administration. The mice were tested for 160 minutes after GHB administration although in some experiments recordings were made for as long as 280 minutes. Motor activity was expressed as a percentage of the baseline value. The time it took the mice to fall off the rod at a given time point after drug administration was divided by the time it took at baseline.
(§2) Statistical significance between control and treated groups at each time point in the present study was determined by student's t-test. Note that values of motor activity were expressed as a percentage of the baseline value which was normalized to 100%.

[3] = system: CD-1 male mice; assay: Passivity test (sleep induction and sleep time); assay type: in vivo; settings: for Passivity test scores (2-8): 10 minutes after injection, 6 non-fasting mice, 0-normal, 8-no struggle
Experimental: as §1
The passivity test developed by Irwing was used to determine sleep time. After GHB administration, the mice were placed in an unusual position and a score of 2, 4, 6, or 8 was given when the mice ceased to struggle against respectively being suspended vertically, rotated horizontally onto their backs, suspended by their hind limbs or suspended by their forelimbs. Scores on the passivity test were determined every 10 minutes after GHB administration. […] The time between scores of 8 and 2 was defined as the total sleep time.
as §2
The optimal dose of GHB for inducing sleep was determined with the passivity test. GHB was dissolved in 0.9% NaCl and 1% Tween 80 and delivered intraperitoneally (i.p.) to 4 groups of 6 mice that had not been fasting. Each group received either 200 mg/kg, 400 mg/kg, 600 mg/kg and 800 mg/kg. […] For this reason, this dose was used in the initial exploratory studies.

[4] = system: male Wistar rats; assay: Core body temperature (Tb) and locomotor activity (LMA) recording by implanted transmitter; assay type: in vivo; settings: IP dosing at ZT19, GHB 200 mg/kg in all drug conditions, comparators and ZT hours in the value
[5] = system: male Wistar rats; assay: EEG/EMG sleep recording after IP dosing; settings: for NR bout duration (NRBD): lights on
[6] = Table 2: i.p., all compounds 800 mg/kg, mice not fasting, n=6, 2′ or 15′ in label = preincubation before GHB
[7] = Table 3: oral, GHB 800 mg/kg, PA 66 mg/kg, mice fasting 12 hours, n=6
[8] = Table 4: GHB orally, GAL/GL/GA intraperitoneally, all 1200 mg/kg, mice fasting 1 hour, n=6
[9] = rats, IP dosing at ZT19, comparators and ZT hours in the value

For `O=C([O-])CCCO.[Na+]` [GHB, gamma-hydroxybutyrate sodium salt], which Plasma half-life [1] is on record?
The Plasma half-life was “about 45 minutes”.

And the Seizure-like activity ([2]; GHB 1200 mg/kg orally, mice)?
The Seizure-like activity was “appeared to induce seizure-like activity in many of the mice”.

And the “Percent of motor activity after GHB administration, 20′” value [2, 6]?
The value was 0 ± 0%.

And the “Percent of motor activity after GHB administration, 40′” value [2, 6]?
Its value is 0 ± 0%.

And the “Percent of motor activity after GHB administration, 60′” value [2, 6]?
Its value is 0 ± 0%.

What about the “Percent of motor activity after GHB administration, 80′” value [2, 6] of the same compound?
The value was 20 ± 2%.

What about the “Percent of motor activity after GHB administration, 100′” value [2, 6] of the same compound?
The value was 35 ± 12%.

What about the “Percent of motor activity after GHB administration, 120′” value [2, 6] of the same compound?
The value was 65 ± 5%.

And the “Percent of motor activity after GHB administration, 140′” value [2, 6]?
The value was 113 ± 20%.

And the “Percent of motor activity after GHB administration, 160′” value [2, 6]?
Its value is 124 ± 20%.

And the “Percent of motor activity after GHB administration, 0′” value ([2]; Table 2: i.p., all compounds 800 mg/kg, mice not fasting, n=6, 2′ or 15′ in label = preincubation before GHB, % of baseline, mean ± S.E.M.)?
Its value is 31 ± 7%.

What about the “Percent of motor activity after GHB administration (oral), 20′” value [2, 7] of the same compound?
Its value is 0 ± 0%.

And the “Percent of motor activity after GHB administration (oral), 40′” value [2, 7]?
Its value is 7 ± 3%.

What about the “Percent of motor activity after GHB administration (oral), 60′” value [2, 7] of the same compound?
The value was 12 ± 6%.

And the “Percent of motor activity after GHB administration (oral), 80′” value [2, 7]?
The value was 20 ± 8%.

What about the “Percent of motor activity after GHB administration (oral), 100′” value [2, 7] of the same compound?
Its value is 26 ± 5%.

What about the “Percent of motor activity after GHB administration (oral), 160′” value [2, 7] of the same compound?
Its value is 86 ± 1%.

What about the “Percent of motor activity after GHB administration (oral), 220′” value [2, 7] of the same compound?
Its value is 90 ± 8%.

And the “Percent of motor activity after GHB administration (oral), 280′” value [2, 7]?
The value was 100 ± 7%.

What about the “Percent of motor activity after GHB administration, 20′” value [2, 8] of the same compound?
The value was 27 ± 19%.

And the “Percent of motor activity after GHB administration, 40′” value [2, 8]?
The value was 0 ± 0%.

And the “Percent of motor activity after GHB administration, 60′” value [2, 8]?
The value was 3 ± 2%.

What about the “Percent of motor activity after GHB administration, 80′” value [2, 8] of the same compound?
Its value is 4 ± 1%.

And the “Percent of motor activity after GHB administration, 100′” value [2, 8]?
The value was 5 ± 4%.

What about the “Percent of motor activity after GHB administration, 160′” value [2, 8] of the same compound?
The value was 21 ± 10%.

And the “Percent of motor activity after GHB administration, 220′” value [2, 8]?
Its value is 61 ± 12%.

What about the “Percent of motor activity after GHB administration, 0′” value ([2]; Table 4: GHB orally, GAL/GL/GA intraperitoneally, all 1200 mg/kg, mice fasting 1 hour, n=6, mean ± S.E.M.) of the same compound?
The value was 58 ± 9%.

What about the “Duration of reproducible decrease in motor activity” value ([2]; mouse, in vivo) of the same compound?
Its value is “more than 100 minutes”.

What about the “Percent of motor activity after GHB administration (oral), 0′” value ([2]; mouse, in vivo) of the same compound?
The value was 51 ± 1%.

What about the “Percent of motor activity after GHB administration, 0′” value ([2]; mouse, in vivo, po) of the same compound?
The value was 94 ± 9%.

What about the “Percent of motor activity after GHB administration, 20′” value ([2]; mouse, in vivo, po) of the same compound?
The value was 2 ± 2%.

What about the “Percent of motor activity after GHB administration, 40′” value ([2]; mouse, in vivo, po) of the same compound?
The value was 0 ± 0%.

What about the “Percent of motor activity after GHB administration, 60′” value ([2]; mouse, in vivo, po) of the same compound?
Its value is 4 ± 1%.

What about the “Percent of motor activity after GHB administration, 80′” value ([2]; mouse, in vivo, po) of the same compound?
The value was 10 ± 2%.

And the “Percent of motor activity after GHB administration, 100′” value ([2]; mouse, in vivo, po)?
The value was 22 ± 7%.

What about the “Percent of motor activity after GHB administration, 160′” value ([2]; mouse, in vivo, po) of the same compound?
The value was 104 ± 26%.

What about the “Percent of motor activity after GHB administration, 220′” value ([2]; mouse, in vivo, po) of the same compound?
Its value is 122 ± 23%.

What about the “Percent of motor activity after GHB administration, 280′” value ([2]; mouse, in vivo, po) of the same compound?
The value was 117 ± 13%.

And the “Duration of depressed motor activity” value ([2]; oral GHB at 1200 mg/kg, mice)?
Its value is “at least 220 minutes”.

And the “Passivity test scores (2-8)” value ([3]; GHB 200 mg/kg i.p.)?
Its value is 0.

What about the “Passivity test scores (2-8)” value ([3]; GHB 400 mg/kg i.p.) of the same compound?
Its value is 2 ± 0.38.

And the “Passivity test scores (2-8)” value ([3]; GHB 600 mg/kg i.p.)?
Its value is 4 ± 0.25.

What about the “Passivity test scores (2-8)” value ([3]; GHB 800 mg/kg i.p.) of the same compound?
Its value is 8 ± 0.42.

What about the “Time to reliably induce sleep” value ([3]; GHB 800 mg/kg i.p., non-fasting mice) of the same compound?
Its value is ≤ 10 min.

What about the “Sleep time” value ([3]; Table 5: orally, all compounds 7.93 mmol/kg, mice fasting 24 hours, n=8/group, mean ± S.E.M.) of the same compound?
Its value is 35 ± 10 min.

And the “GHB induced sleep time” value ([3]; non-fasting mice, n=6/group, GHB 800 mg/kg i.p. alone or immediately after 800 mg/kg i.p. of the named compound)?
The value was 96.5 ± 5 min.

And the “Locomotor activity (LMA), hourly average” value [4]?
The value was “significantly lower LMA compared to vehicle (ZT21)”.

And the “Rats that displayed SW activity” value ([5]; immediately following IP dosing, 8 rats)?
The value was “Seven of 8”.

What about the “Spike and wave (SW) activity in the EEG” value ([5]; rats, IP dosing at ZT19, GHB 200 mg/kg in all drug conditions) of the same compound?
The value was “elicited spike and wave activity (SW) in the EEG during the first hour following dosing”.

What about the “Time spent awake (W), hourly” value [5, 9] of the same compound?
Its value is “reduced W compared to vehicle during ZT 21”.

And the “Time spent in non-REM (NR) sleep, hourly” value [5, 9]?
The value was “significantly greater than vehicle during ZT 21”.

What about the “NR bout duration (NRBD)” value ([5]; rats, ZT 1 and 3) of the same compound?
The value was “increased NRBD compared to GHB+L-gul (ZT 1, 3), GHB+PA (60 mg/kg) (ZT 1, 3) and GHB+PA (120 mg/kg) (ZT 3)”.

And the “NR bout duration (NRBD)” value ([5]; rats, ZT 5)?
The value was “significantly decreased NRBD during ZT 5 compared to GHB+L-gul and GHB+PA (120 mg/kg)”.
